Source: patent US4250259A, “Microbiological production of ketones from C3 -C6 secondary alcohols” (priority 1979, dated 1981)
Read-outs that look alike come from different tables or passages of the source.

Legend:
[1] = target: particulate P(40) fraction (Methylosinus trichosporium, UniProt Q50541+Q9KX50+Q9KX51); assay: hydroxylation of n-alkanes to secondary alcohols by particulate P(40) fraction (Table XVII); type: biochemical, Methylosinus trichosporium (OB3b, NRRL-B-11,196)
Text: (§1) Both cell suspensions (particulate fraction) and cell-free particulate fraction of methane-grown methylotroph microorganisms are capable of catalyzing the conversion of C3 -C6 n-alkanes to the corresponding alcohols including secondary alcohols. The conditions for preparing the cell suspensions or the cell-free particulate fractions from methane-grown methylotroph microorganisms is the same as described above. The cell-free particulate fraction requires the presence of oxygen and NADH as an electron donor. […] Tables XVI and XVII show the conversion of C3 -C6 n-alkanes to the corresponding secondary alcohols using cell suspensions and cell-free particulate fractions, respectively, of methane-grown methylotroph microorganisms.
(§2) ^(a) Particulate P(40) fraction was prepared as follows:
(§3) Cellsuspensions at 4° C. were disintegrated through a French
(§4) Pressure cell and centrifuged at 4000 × g. for 15 min. to remove
(§5) unbroken bacteria. The supernatant solution was then centrifuged at 40,00
(§6) × g. for 30 min. at 4° C., yielding the particulate P(40) an
(§7) soluble S(40) fractions. The products were identified by gas
(§8) chromatography and cochromatography with authentic standard.
Target sequence in this assay (Q50541 1-252): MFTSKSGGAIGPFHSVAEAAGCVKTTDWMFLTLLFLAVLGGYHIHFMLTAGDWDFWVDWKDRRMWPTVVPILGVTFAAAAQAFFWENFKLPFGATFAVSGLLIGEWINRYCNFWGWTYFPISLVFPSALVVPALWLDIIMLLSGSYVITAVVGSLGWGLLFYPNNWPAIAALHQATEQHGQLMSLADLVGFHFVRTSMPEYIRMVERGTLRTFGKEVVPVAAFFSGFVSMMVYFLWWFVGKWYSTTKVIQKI
Target sequence in this assay (Q9KX50 40-431): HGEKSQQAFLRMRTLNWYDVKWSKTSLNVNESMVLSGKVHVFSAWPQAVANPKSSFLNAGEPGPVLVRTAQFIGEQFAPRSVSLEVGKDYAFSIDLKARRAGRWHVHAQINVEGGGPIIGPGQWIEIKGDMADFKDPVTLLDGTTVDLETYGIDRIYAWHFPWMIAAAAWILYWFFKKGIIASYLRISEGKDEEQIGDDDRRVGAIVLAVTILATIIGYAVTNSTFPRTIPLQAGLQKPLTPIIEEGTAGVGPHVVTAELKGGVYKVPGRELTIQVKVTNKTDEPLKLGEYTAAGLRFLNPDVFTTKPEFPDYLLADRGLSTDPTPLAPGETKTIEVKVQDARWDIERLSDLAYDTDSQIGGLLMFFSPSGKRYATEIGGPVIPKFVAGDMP
Target sequence in this assay (Q9KX51 1-256): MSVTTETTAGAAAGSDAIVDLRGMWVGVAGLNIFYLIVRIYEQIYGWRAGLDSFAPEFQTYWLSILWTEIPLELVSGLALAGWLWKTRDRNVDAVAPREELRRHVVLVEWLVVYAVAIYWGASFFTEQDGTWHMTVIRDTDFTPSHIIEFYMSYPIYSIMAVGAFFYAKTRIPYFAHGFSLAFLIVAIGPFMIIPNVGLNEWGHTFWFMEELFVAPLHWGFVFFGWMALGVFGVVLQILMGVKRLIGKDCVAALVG

[2] = target: particulate P(40) fraction (Methylococcus capsulatus, UniProt G1UBD1+Q603F1+Q607G3); assay: as above; type: biochemical, Methylococcus capsulatus (Texas, ATCC 19,069)
Chain of particulate P(40) fraction (Methylococcus capsulatus, UniProt G1UBD1+Q603F1+Q607G3) (Q607G3 whole entry): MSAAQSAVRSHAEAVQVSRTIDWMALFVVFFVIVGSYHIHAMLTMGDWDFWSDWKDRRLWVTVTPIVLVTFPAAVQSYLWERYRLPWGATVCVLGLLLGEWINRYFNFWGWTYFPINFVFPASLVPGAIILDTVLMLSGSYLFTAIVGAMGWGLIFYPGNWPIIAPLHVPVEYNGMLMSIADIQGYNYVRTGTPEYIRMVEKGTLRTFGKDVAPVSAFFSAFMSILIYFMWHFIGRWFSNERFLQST
Chain of particulate P(40) fraction (Methylococcus capsulatus, UniProt G1UBD1+Q603F1+Q607G3) (G1UBD1 33-414): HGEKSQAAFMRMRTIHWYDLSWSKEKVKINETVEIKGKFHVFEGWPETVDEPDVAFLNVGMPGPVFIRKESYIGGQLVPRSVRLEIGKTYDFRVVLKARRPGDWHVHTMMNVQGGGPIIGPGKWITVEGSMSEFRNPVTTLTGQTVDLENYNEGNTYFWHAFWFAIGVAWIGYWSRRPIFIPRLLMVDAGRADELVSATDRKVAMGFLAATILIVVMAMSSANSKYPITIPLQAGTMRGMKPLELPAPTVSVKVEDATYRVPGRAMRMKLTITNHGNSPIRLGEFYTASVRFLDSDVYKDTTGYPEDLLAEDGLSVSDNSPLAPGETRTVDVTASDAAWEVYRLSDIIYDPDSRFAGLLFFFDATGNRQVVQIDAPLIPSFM
Chain of particulate P(40) fraction (Methylococcus capsulatus, UniProt G1UBD1+Q603F1+Q607G3) (Q603F1 1-260): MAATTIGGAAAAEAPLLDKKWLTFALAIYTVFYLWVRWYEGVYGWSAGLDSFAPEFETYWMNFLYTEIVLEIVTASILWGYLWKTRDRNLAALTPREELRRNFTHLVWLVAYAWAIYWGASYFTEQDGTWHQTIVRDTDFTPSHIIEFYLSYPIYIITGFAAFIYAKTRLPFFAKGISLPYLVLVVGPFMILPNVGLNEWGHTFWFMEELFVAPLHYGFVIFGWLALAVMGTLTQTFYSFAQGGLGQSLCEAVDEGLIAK
Text: as §1, §2, §3, §4, §5, §6, §7, §8

[3] = system: Methylococcus capsulatus CRL M1 NRRL B-11,219; assay: conversion of n-alkanes to oxidation products by cell suspensions (Table XVIII); type: cell-based; conditions: methane-grown cell suspension; pH 7.0
Protocol: (§12) ^(a) Cell-suspensions of methanegrown methylotroph microorganisms
(§13) indicated in 0.15 M phosphate buffer, pH 7.0 incubated in the alkanes as
(§14) indicated at 3° C. The oxidation products were determined by g.l.c

[4] = system: particulate P(40) fraction; assay: hydroxylation of n-alkanes to secondary alcohols by particulate P(40) fraction (Table XVII); type: biochemical, Methylobacterium sp. (CRL-26, NRRL-B-11,222)
Text: as §1, §2, §3, §4, §5, §6, §7, §8

[5] = system: Methylosinus trichosporium OB3b NRRL B-11,196; assay: conversion of n-alkanes to oxidation products by cell suspensions (Table XVIII); type: cell-based; conditions: methane-grown cell suspension; pH 7.0
Protocol: as §12, §13, §14

[6] = system: Methylobacter capsulatus (Y, NRRL-B-11,201); assay: n-alkanes to secondary alcohols by cell suspensions (Table XVI); type: cell-based; conditions: Growth Substrate Methane
Text: as §1
(§9) ^(a) The product secondary alcohols were identified and estimated by […]

[7] = system: Methylosinus sp. (CRL-15, NRRL-B-11,202); assay: as above; type: cell-based; conditions: Growth Substrate Methane
Text: as §1, §9

[8] = system: Methylosinus trichosporium (OB3b, NRRL-B-11,196); assay: as above; type: cell-based; conditions: Growth Substrate Methane
Text: as §1, §9

[9] = system: Methylobacterium sp. (CRL-26, NRRL-B-11,208); assay: as above; type: cell-based; conditions: Growth Substrate Methane
Text: as §1, §9

[10] = system: Methylomonas sp. (CRL-17, NRRL-B-11,209); assay: as above; type: cell-based; conditions: Growth Substrate Methane
Text: as §1, §9

[11] = system: Methylococcus capsulatus (Texas, ATCC 19,069); assay: as above; type: cell-based; conditions: Growth Substrate Methane
Text: as §1, §9

[12] = target: particulate P(40) fraction (Methylosinus trichosporium, UniProt Q50541+Q9KX50+Q9KX51); assay: hydroxylation of n-alkanes to secondary alcohols by particulate P(40) fraction (Table XVII); type: biochemical, Methylosinus sp. (CRL-15, NRRL-B-11,202)
Text: as §1, §2, §3, §4, §5, §6, §7, §8
Target sequence in this assay (Q9KX50 40-431): as the sequence (Q9KX50 40-431) above
Target sequence in this assay (Q50541 1-252): as the sequence (Q50541 1-252) above
Target sequence in this assay (Q9KX51 1-256): as the sequence (Q9KX51 1-256) above

[13] = system: Methylobacterium organophilum XX; assay: n-alkanes to methyl ketones by resting cell suspensions (Table I); type: cell-based; conditions: cells grown on methane; 30° C.
Protocol: (§10) The pH of the nutrient medium was adjusted to 7.0 by the addition of acid or base and 50 ml. samples of the nutrient medium were charged into a plurality of 300 ml. shaker flasks. […] The isolates had been maintained on methanol (0.4% V/V) agar plates or on agar plates under an atmosphere of methane and air having a 1:1 V/V gas ratio which had been transferred every two weeks. For growth on methanol, the medium was supplemented with 0.4% methanol. For growth on methane, the gaseous phase of the inoculated flasks was replaced with a gas mixture comprised of methane and air having a ratio of 1:1 on a V/V basis. The inoculated flasks were sealed air-tight and were incubated on a rotary shaker of orbital radius 2.5 cm. at 250 rpm and at 30° C. for two days until turbidity in the medium had developed. The cells were harvested by centrifugation at 10,000×g. at 4° C. for 30 minutes. The cell pellet was washed twice with a 0.05 M phosphate buffer at a pH of 7.0 (containing 0.02 M MgCl2). The washed cells were then suspended in a 0.05 M phosphate buffer at pH 7.0.
(§11) A 0.5 ml. sample of each washed cell suspension (2 mg. cells) was put into 10 ml. vials at 4° C. which were sealed with a rubber cap. The gaseous phase of the vials was removed with vacuum and then was replaced with a gas mixture of the substrate reactant (i.e., alkane or secondary alcohol) and oxygen at a 1:1 V/V ratio. (In the case of a liquid substrate, i.e., secondary alcohol, 10 μl of the substrate was put in the 10 ml. vials). The vials were then incubated at 30° C. on a rotary shaker at 300 rpm. Samples of product (1-3 μl) were withdrawn periodically with a microsyringe and the products were analyzed by gas chromatography (ionization flame detector column).

[14] = system: Methylomonas methanica SI (NRRL B-11,199); assay: as above; type: cell-based; conditions: cells grown on methane; 30° C.
Protocol: as §10, §11

[15] = system: Methylococcus capsulatus Texas (ATCC 19069); assay: as above; type: cell-based; conditions: cells grown on methane; 30° C.
Protocol: as §10, §11

[16] = system: Methylosinus sporium 5 (NRRL B-11,197); assay: as above; type: cell-based; conditions: cells grown on methane; 30° C.
Protocol: as §10, §11

[17] = system: Methylobacter capsulatus Y (NRRL B-11,201); assay: as above; type: cell-based; conditions: cells grown on methane; 30° C.
Protocol: as §10, §11

[18] = system: Methylomonas albus BG8 (NRRL B-11,200); assay: as above; type: cell-based; conditions: cells grown on methane; 30° C.
Protocol: as §10, §11

[19] = system: Methylocystis parvus OBBP (NRRL B-11,198); assay: as above; type: cell-based; conditions: cells grown on methane; 30° C.
Protocol: as §10, §11

[20] = system: Methylosinus trichosporium OB3b (NRRL B-11,196); assay: as above; type: cell-based; conditions: cells grown on methane; 30° C.
Protocol: as §10, §11

| Compound | Conversion Rate, n-alkane to corresponding secondary alcohol [1] | Conversion Rate, n-alkane to corresponding secondary alcohol [2] | Conversion Rate, n-alkane to corresponding secondary alcohol [4] | Conversion Rate, n-alkane to corresponding secondary alcohol [6] [μmoles/hr/^5 mg. protein] | Conversion Rate, n-alkane to corresponding secondary alcohol [7] [μmoles/hr/^5 mg. protein] | Conversion Rate, n-alkane to corresponding secondary alcohol [8] [μmoles/hr/^5 mg. protein] | Conversion Rate, n-alkane to corresponding secondary alcohol [9] [μmoles/hr/^5 mg. protein] | Conversion Rate, n-alkane to corresponding secondary alcohol [10] [μmoles/hr/^5 mg. protein] | Conversion Rate, n-alkane to corresponding secondary alcohol [11] [μmoles/hr/^5 mg. protein] | Conversion Rate, n-alkane to corresponding secondary alcohol [12] | Conversion Rates, n-alkane to corresponding methyl ketone [13] [μmoles/hr/mg protein] | Conversion Rates, n-alkane to corresponding methyl ketone [14] [μmoles/hr/mg protein] | Conversion Rates, n-alkane to corresponding methyl ketone [15] [μmoles/hr/mg protein] | Conversion Rates, n-alkane to corresponding methyl ketone [16] [μmoles/hr/mg protein] | Conversion Rates, n-alkane to corresponding methyl ketone [17] [μmoles/hr/mg protein] | Conversion Rates, n-alkane to corresponding methyl ketone [18] [μmoles/hr/mg protein] | Conversion Rates, n-alkane to corresponding methyl ketone [19] [μmoles/hr/mg protein] | Conversion Rates, n-alkane to corresponding methyl ketone [20] [μmoles/hr/mg protein] | further results |
| --- | --- | --- | --- | --- | --- | --- | --- | --- | --- | --- | --- | --- | --- | --- | --- | --- | --- | --- | --- |
| CCCC [n-Butane, n-butane] | 0.79 μmoles/hr/2.0mg. of protein | 0.92 μmoles/hr/2.0mg. of protein | 0.61 μmoles/hr/2.0mg. of protein | 0.09 | 1.2 | 1.5 | 0.80 | 1.2 | 1.0 | 0.89 μmoles/hr/2.0mg. of protein | 2.0 | 0.30 | 0.52 | 0.58 | 1.1 | 0.60 | 1.0 | 1.2 | Conversion Rate, product 1-Butanol [3]: 0.4 μmoles/hr./mg./protein; Conversion Rate, product 2-Butanol [3]: 0.5 μmoles/hr./mg./protein; Conversion Rate, product 2-Butanone [3]: 0.2 μmoles/hr./mg./protein; Conversion Rate, product n-butanol [3]: 0.2 μmoles/hr./mg./protein; Conversion Rate, product 1-Butanol [5]: 0.3 μmoles/hr./mg./protein; Conversion Rate, product 2-Butanol [5]: 0.4 μmoles/hr./mg./protein; Conversion Rate, product 2-Butanone [5]: 0.1 μmoles/hr./mg./protein; Conversion Rate, product n-butanol [5]: 0.1 μmoles/hr./mg./protein |
| CCC [n-Propane, n-propane] | 1.32 μmoles/hr/2.0mg. of protein | 1.2 μmoles/hr/2.0mg. of protein | 1.0 μmoles/hr/2.0mg. of protein | 0.20 | 2.1 | 2.5 | 1.4 | 1.6 | 1.1 | 1.5 μmoles/hr/2.0mg. of protein | 2.8 | 2.5 | 1.2 | 2.1 | 1.6 | 2.7 | 1.8 | 1.5 | Conversion Rate, product 1-Propanol [3]: 0.5 μmoles/hr./mg./protein; Conversion Rate, product 2-Propanol [3]: 0.7 μmoles/hr./mg./protein; Conversion Rate, product Acetone [3]: 0.3 μmoles/hr./mg./protein; Conversion Rate, product Propanol [3]: 0.2 μmoles/hr./mg./protein; Conversion Rate, product 1-Propanol [5]: 0.4 μmoles/hr./mg./protein; Conversion Rate, product 2-Propanol [5]: 0.6 μmoles/hr./mg./protein; Conversion Rate, product Acetone [5]: 0.2 μmoles/hr./mg./protein; Conversion Rate, product Propanol [5]: 0.1 μmoles/hr./mg./protein |
